From patent US20160074351A1, “DISPENSING SYSTEM” (HZNP Limited, priority 2012, published 2016)

Key:
[1] = published studies; cited from earlier work
[2] = system: rats; experiment: Fertility studies of dermally applied DMSO; format: in vivo
Text: Studies conducted in rats found no effect of dermally applied DMSO on fertility, reproductive performance, or offspring performance.

[3] = system: rhesus monkeys; details: daily oral or dermal treatment for 9 to 18 months; cited from earlier work
[4] = system: rabbits, dogs and pigs; details: dermal or oral administration; published studies; cited from earlier work
[5] = system: minipigs; experiment: Ocular effects of dermal DMSO, indirect ophthalmoscopy, minipigs; format: in vivo; details: multiple-daily dermal application for 52 weeks
[6] = system: rats; experiment: Ocular effects of dermal DMSO, indirect ophthalmoscopy, rats; format: in vivo; details: multiple-daily dermal application for 26 weeks
[7] = major diclofenac metabolite; cited from earlier work
[8] = system: rats; details: doses up to 10 mg/kg/day (approximately 0.6-fold the MRHD); cited from earlier work
[9] = system: rats; details: dietary constituent for 2 years, doses up to 2 mg/kg/day; cited from earlier work
[10] = system: albino mice; details: daily topical applications for two years at concentrations up to 0.035%; cited from earlier work
[11] = system: hairless mice; details: topical application at doses up to 0.035%; cited from earlier work
[12] = system: mice; details: dietary constituent for 2 years, doses up to 2 mg/kg/day; cited from earlier work
[13] = system: male and female rats; details: doses up to 4 mg/kg/day (1.4-fold of the MRHD); cited from earlier work
[14] = system: mice; details: doses up to 20 mg/kg/day (0.6-fold the MRHD), maternal and fetal toxicity induced; cited from earlier work
[15] = system: rabbits; details: doses up to 10 mg/kg/day (approximately […] the MRHD); cited from earlier work
[16] = system: rats; details: cited from earlier work
[17] = system: patients with osteoarthritis; details: combination vs. oral diclofenac alone
[18] = case report in the literature; cited from earlier work
[19] = in vivo; cited from earlier work
[20] = system: patients; details: cited from earlier work
[21] = oral diclofenac sodium; cited from earlier work
[22] = bacterial reverse mutation, mouse lymphoma point mutation, CHO chromosomal aberration in vitro, in vivo rat bone marrow chromosomal aberration; cited from earlier work

What does the source list for `C[S+](C)[O-]` [DMSO, dimethyl sulfoxide]?
potential teratogenicity [1]: equivocal; fertility, reproductive performance, or offspring performance [2]: no effect; ocular abnormalities [3]: no ocular abnormalities were observed; ocular findings by slit-lamp biomicroscopy [4]: refractive changes of lens curvature and cortical fibers indicative of myopic changes and/or incidences of lens opacity or discoloration; ocular adverse effects by indirect ophthalmoscopy [5]: No adverse effects were observed; ocular adverse effects by indirect ophthalmoscopy [6]: No adverse effects were observed

With `O=C(O)Cc1ccccc1Nc1c(Cl)cc(O)cc1Cl` [4′-hydroxy-diclofenac] as the compound, how does the pharmacologic activity [7] read?
The pharmacologic activity was “very weak pharmacologic activity”.

For `O=C([O-])Cc1ccccc1Nc1c(Cl)cccc1Cl.[Na+]` [diclofenac sodium], which teratogenicity [8] is on record?
Its teratogenicity is “did not produce teratogenicity”.

And the tumor incidence [9]?
The tumor incidence was “no significant increases in tumor incidence”.

And the neoplasm incidence [10]?
Its neoplasm incidence is “did not increase neoplasm incidence”.

And the “time of onset of tumors” value [11]?
The value was “earlier median time of onset of tumors”.

And the tumor incidence [12]?
The tumor incidence was “no significant increases in tumor incidence”.

What about the fertility [13] of the same compound?
The fertility was “did not affect fertility”.

What about the teratogenicity [14] of the same compound?
Its teratogenicity is “did not produce teratogenicity”.

And the teratogenicity [15]?
Its teratogenicity is “did not produce teratogenicity”.

Which results are given for `O=C(O)Cc1ccccc1Nc1c(Cl)cccc1Cl` [diclofenac]?
effects of maternal exposure on labor and delivery [16]: increased the incidence of dystocia, delayed parturition, and decreased offspring survival; abnormal creatinine [17]: 7%; abnormal hemoglobin [17]: 9%; abnormal urea [17]: 12%; rate of rectal hemorrhage [17]: less than 1%; detection in breast milk [18]: can be detected at low levels; free unchanged diclofenac excreted in the urine [19]: Little or no; patients with marked transaminase elevations whose abnormal tests occurred during the first 2 months of therapy ([20]; all trials): 42 of the 51 patients; borderline (less than 3 times ULN) or greater elevations of transaminases, patients ([20]; clinical trials of indications other than acute pain): about 15%; meaningful elevations of ALT and/or AST, patients ([20]; open-label controlled trial, 3,700 patients treated for 2 to 6 months): about 4%; marked elevations (>8 times the ULN) of ALT and/or AST, patients ([20]; open-label controlled trial, 3,700 patients): about 1%; incidence of borderline, moderate and marked elevations of ALT or AST compared to other NSAIDs ([20]; open-label study): higher incidence; binding of diclofenac to protein when administered with aspirin [21]: reduced; clearance of free diclofenac when administered with aspirin [21]: not altered; mutagenicity / clastogenicity [22]: not mutagenic or clastogenic
